Marks after values point to notes of the source that are not given here. Peptide text beside a SMILES is read from it. * marks the point of attachment. X58 = O=C1C=CC(=O)N1c1cccc(CCCCCCCCCCCC(=O)*)c1; X71 = O=C1C=CC(=O)N1c1cccc(CCCCCC(=O)*)c1; X49 = O=C1C=CC(=O)N1c1ccccc1CCCCCC(=O)*
Tests used:
[1] = system: xylene-induced ear swelling; test: Xylene-induced mouse ear swelling; type: in vivo; conditions: Kunming mice, injected once a day for 5 days; for Swelling degree / Swelling degree (mg): right minus left ear piece weight 2 h after xylene; for Inhibition rate (%): xylene-induced ear swelling
Protocol: Kunming mice were taken, a normal saline group was taken as a blank control group, an aspirin group (200 mg/kg) was taken as a positive control group, and X1-X90 administration groups were taken as test groups. The mice were injected once a day for 5 consecutive days. The blank control group was given an equal volume of normal saline. One hour after the last administration, 0.05 mL of xylene was applied to both sides of the right ear of each mouse to cause inflammation, while no drug was applied to the left ear as a normal ear. Two hours later, the mice were put to death by dislocation. Two ears were cut along the auricle. Ear pieces were taken with a puncher and weighed, and the swelling degree and the swelling rate were calculated. Swelling degree=right ear piece weight-left ear piece weight, swelling rate=(swelling degree/left ear piece weight)*100%. Statistical t-test was conducted on the experimental results. *P<0.05 indicates significant difference, and **P<0.01 indicates extremely significant difference.

[2] = system: retinal vascular endothelial nuclei; test: Neovascularization in a rat model of premature retinopathy; type: in vivo, rats; conditions: for Nuclei count (retinal vascular endothelial nuclei, average per section per eyeball): dose 0.05 μM in the vitreous chamber from day 7 of modeling for one week, counted on day 14, oxygen-induced neonatal rats
Protocol: Using a fluctuating oxygen-induced animal model, newborn rats born naturally on the same day (within 12 h) were randomly divide into three groups: an oxygen model group, an oxygen treatment group and a normal control group. The oxygen model was further divided into three sub-group model groups, and the sub-group model groups and the treatment group were all placed in a semi-closed oxygen chamber made of organic glass; medical oxygen was introduced into the chamber, and the concentration was adjusted to 80%±2% by an oxygen meter; nitrogen was introduced into the oxygen chamber after 24 h, and the oxygen concentration was adjusted to 10%±2% rapidly and maintained for 24 h. This was repeated to keep the oxygen concentration in the oxygen chamber alternating between 80% and 10% every 24 h, the oxygen concentration was maintained for 7 d, and then the rats were fed in the air. The oxygen concentration was monitored 8 times a day, and the ambient temperature in the chamber was controlled at 23° C.±2° C. Bedding was replaced, feed was added, and water and mother rats were replaced once. The normal control group was placed in the animal room feeding environment. […] The oxygen treatment group was divided into three subgroups. On day 7 of modeling, X1-[…], […]-[…] and […]-X90 were injected in the vitreous chamber respectively, and the oxygen model group and the control group were only given normal saline for one week. On day 14, after the rats were anesthetized by diethyl ether and killed, eyeballs were extracted and fixed in 40 g/L paraformaldehyde solution for 24 h. Gradient dehydration by alcohol was performed, and the eyeballs were processed by xylene to be transparent. After waxing, the eyeballs were sectioned continuously to a thickness of 4μm, and the periphery of the optic disc should be avoided as much as possible. The sections were parallel to the sagittal plane from cornea to the optic disc. Ten sections of each eyeball were randomly taken and stained with hematoxylin eosin, the number of vascular endothelial nuclei that broke through the inner limiting membrane of the retina (only the number of vascular endothelial nuclei closely related to the inner limiting membrane were counted) was counted, and statistics of the average number of cells per section per eyeball was performed. Results: In the control group, there were no vascular endothelial nuclei that broke through the inner limiting membrane of the retina and grew into vitreous body, or the vascular endothelial nuclei were occasionally found in only a few sections. In the model group, there were many vascular endothelial nuclei that broke through the inner limiting membrane of the retina, some appeared alone, and some appeared in clusters. At the same time, on some sections, these vascular endothelial nuclei were also found adjacent to deep retinal vessels, confirming that they originated from the retina rather than the vitreous body or other ocular tissues. In the treatment group, only a few vascular endothelial nuclei that broke through the inner limiting membrane of retina could be seen in the sections.

HUVECs = test: Transwell migration inhibition on HUVECs; type: cell-based, human; conditions: for Inhibition rate (%): HUVEC migration vs blank control; for Cell migration number (Mean ± SD): HUVECs, transwell, 24 h
[3] = system: corneal neovascularization; test: Corneal neovascularization induced by alkali burn in BALB/c mice; type: in vivo; parameters: Inhibition rate (corneal neovascularization): concentration or dose not given beside the values; conditions: day 14 after alkali burn, vitreous injection once a day for 1 week
[4] = system: collagen-induced arthritis; test: Mouse collagen-induced arthritis (CIA) animal model; type: in vivo; conditions: DBA/1 mice CIA model, dose 4.0 mg/kg, subcutaneous from day 30, n=10; for Clinical score: highest score 16
[5] = system: retinal neovascularization (OIR model); test: Retinal vessels in OIR mice; type: in vivo, C57/B16 mice; conditions: for Area of neovascular plexus (mm^2): dose 0.05 μM in the vitreous chamber on day 13, retinal vessels evaluated on day 17; for Inhibition rate (%): dose 0.05 μM in the vitreous chamber on day 13, retinal vessels evaluated on day 17, vs negative control
Source text: Establishment of an OIR model: Young mice and their mothers were exposed in a 75% hyperoxic environment from day 7 to day 12 after the birth of C57/B16 mice, which caused capillaries in their central retina to disappear rapidly. The mice were returned to the indoor air on day 12, retinal vessels exposed to hyperoxia quickly disappeared, causing extensive abnormal neoangiogenesis, and the central part of the retina remained largely avascular for a long time. After the blood vessels disappeared completely, the mice were injected with normal saline (a negative group), X1-X12, X13-X44, X45-X90 in the vitreous chamber on day 13 respectively, and retinal vessels were evaluated on day 17 ([…] of Texas red labeled tomato agglutinin was injected into the left ventricle to mark unclosed vessels and circulated for 5 min).

[6] = system: IL-1β production by mouse peritoneal macrophages; test: IL-1β production by mouse peritoneal macrophages (ELISA); type: cell-based; conditions: for Inhibition rate: IL-1β production, vs model group; for IL-1β: mouse peritoneal macrophages, 48 h, ELISA
Protocol: Mice were injected intraperitoneally with 1 mL of broth culture medium (containing 6% of starch). Three days later, mice peritoneal macrophages were taken aseptically and washed twice with 1640 culture medium, and the cell concentration was adjusted to 2×10^6 cells/mL. The solutions were injected into 24-well culture plates at 1 mL per well. The cells were incubated in a cell incubator for 3 h and vibrated once every 30 min to make the cells fully adhere to the wall. Then, the cells were washed twice with a culture solution to remove non-adhered cells. PBS was added to the blank group, positive drug Dex was added to the positive group, no drug was added to the model group, and polypeptides X1-X90 with low, medium and high concentrations were added to the test groups; and the cells were continuously cultured for 48 h after administration, and then centrifuged at 1000 r/min for 15 min. The supernatant was collected as a sample to be tested for IL-1β activity.

| Structure (SMILES) | Inhibition rate (%) ([1]; dose 2 mg/kg) | Swelling degree (mg) ([1]; dose 4 mg/kg) | Inhibition rate (%) ([1]; dose 4 mg/kg) | Swelling degree (mg) ([1]; dose 8 mg/kg) | Inhibition rate (%) ([1]; dose 8 mg/kg) | Nuclei count (retinal vascular endothelial nuclei, average per section per eyeball) [2] | Inhibition rate (%) (HUVECs; dose 0.05 μM) | Inhibition rate (%) (HUVECs; dose 0.1 μM) | Inhibition rate (%) (HUVECs; dose 0.2 μM) | Cell migration number (Mean ± SD) (HUVECs; dose 0.05 μM) | Cell migration number (Mean ± SD) (HUVECs; dose 0.1 μM) | Cell migration number (Mean ± SD) (HUVECs; dose 0.2 μM) | Inhibition rate (corneal neovascularization) [3] [%] | MVD (corneal microvessel density) [3] | Joint swelling degree (mm) [4] [mm] | Left and right paw swelling degree (mm) [4] [mm] | Clinical score [4] | Area of neovascular plexus (mm^2) [5] [mm^2] | Inhibition rate (%) [5] | Inhibition rate ([6]; dose 0.05 μM) [%] | other results |
| --- | --- | --- | --- | --- | --- | --- | --- | --- | --- | --- | --- | --- | --- | --- | --- | --- | --- | --- | --- | --- | --- |
| C[C@H](NC(=O)CNC(=O)[C@H](CCCNC(=N)N)NC(=O)CCCCCCCCCCCc1cccc(N2C(=O)C=CC2=O)c1)C(=O)N[C@@H](CC(=O)O)C(=O)N[C@@H](CCCNC(=N)N)C(=O)N[C@@H](C)C(=O)NCC(=O)NCC(=O)NCC(=O)NCC(=O)N[C@@H](CCCNC(=N)N)C(=O)NCC(=O)N[C@@H](CC(=O)O)C(=O)O [X35] (X58-RGADRAGGGGRGD-OH) | 10.27 | 4.78 ± 0.64* mg | 23.27 | 3.48 ± 0.28** mg | 44.14 | 8.544 ± 3.087 | 42.61 | 50.57 | 56.96 | 615.18 ± 57.71 | 529.83 ± 68.02 | 461.34 ± 66.82 | 44.60 | 37.25 ± 4.806 | 0.76 ± 0.13 | 0.85 ± 0.14 | 8.78 ± 1.23 | 0.101 ± 0.005 | 52.36%** | 23.62 | Swelling degree ([1]; dose 2 mg/kg): 5.59 ± 0.91 mg; IL-1β ([6]; dose 0.05 μM): 718.81 ± 11.53 pg/mL; Inhibition rate ([6]; dose 0.1 μM): 30.79%; IL-1β ([6]; dose 0.1 μM): 651.42 ± 15.51 pg/mL; Inhibition rate ([6]; dose 0.2 μM): 34.61%; IL-1β ([6]; dose 0.2 μM): 615.43 ± 17.18 pg/mL |
| C[C@H](NC(=O)CNC(=O)[C@H](CCCNC(=N)N)NC(=O)CCCCCc1ccccc1N1C(=O)C=CC1=O)C(=O)N[C@@H](CC(=O)O)C(=O)N[C@@H](CCCNC(=N)N)C(=O)N[C@@H](C)C(=O)NCC(=O)NCC(=O)NCC(=O)NCC(=O)N[C@@H](CCCNC(=N)N)C(=O)NCC(=O)N[C@@H](CC(=O)O)C(=O)O [X17] (X49-RGADRAGGGGRGD-OH) | 25.36 | 4.43 ± 0.75* mg | 28.89 | 3.53 ± 0.1** mg | 43.34 | 7.012 ± 1.321 | 48.96 | 54.89 | 57.52 | 547.07 ± 50.72 | 483.55 ± 66.46 | 455.35 ± 68.52 | 48.05 | 34.93 ± 4.725 | 0.79 ± 0.12 | 0.78 ± 0.17 | 9.13 ± 1.31 | 0.084 ± 0.009 | 60.38%** | 16.02 | Swelling degree (mg) ([1]; dose 2 mg/kg): 4.65 ± 0.79* mg; retinal vascular endothelial nuclei count ([2]; dose 0.05 μm, vitreous injection): 7.012±1.321; IL-1β ([6]; dose 0.05 μM): 790.35 ± 11.07 pg/mL; Inhibition rate ([6]; dose 0.1 μM): 43.57%; IL-1β ([6]; dose 0.1 μM): 531.11 ± 17.61 pg/mL; Inhibition rate ([6]; dose 0.2 μM): 43.90%; IL-1β ([6]; dose 0.2 μM): 528.00 ± 10.53 pg/mL |
| C[C@H](NC(=O)CNC(=O)[C@H](CCCNC(=N)N)NC(=O)CCCCCc1cccc(N2C(=O)C=CC2=O)c1)C(=O)N[C@@H](CC(=O)O)C(=O)N[C@@H](CCCNC(=N)N)C(=O)N[C@@H](C)C(=O)NCC(=O)NCC(=O)NCC(=O)NCC(=O)N[C@@H](CCCNC(=N)N)C(=O)NCC(=O)N[C@@H](CC(=O)O)C(=O)O [X29] (X71-RGADRAGGGGRGD-OH) | 12.84 | 4.96 ± 0.1* mg | 20.39 | 3.86 ± 0.45** mg | 38.04 | 9.533 ± 2.225 | 46.37 | 50.43 | 53.84 | 574.88 ± 55.42 | 531.34 ± 47.59 | 494.73 ± 56.78 | 54.98 | 30.27 ± 4.918 | 0.81 ± 0.15 | 0.71 ± 0.13 | 8.98 ± 1.44 | 0.109 ± 0.012 | 48.58%* | 16.20 | Swelling degree ([1]; dose 2 mg/kg): 5.43 ± 0.91 mg; IL-1β ([6]; dose 0.05 μM): 788.74 ± 15.39 pg/mL; Inhibition rate ([6]; dose 0.1 μM): 21.75%; IL-1β ([6]; dose 0.1 μM): 736.46 ± 14.72 pg/mL; Inhibition rate ([6]; dose 0.2 μM): 40.73%; IL-1β ([6]; dose 0.2 μM): 557.81 ± 12.11 pg/mL |

Reference: patent publication US20200270309A1, “MALEIMIDE GROUP-MODIFIED ANGIOGENESIS INHIBITOR HM-1 AND USE THEREOF” (NANJING ANJI BIOLOGICAL TECHNOLOGY CO., LTD, priority 2017, published 2020)
